Results from US20260176265A1 (Cancer Research Technology Limited, priority 2022, published 2026).

Columns and labels:
[1] = target: T1, Phospho-EGFR (Tyr1068) in H1975 cells (Homo sapiens, UniProt P00533, L858R/T790M); assay: HTRF pEGFR/total EGFR assay in H1975 cells; type: cell-based; conditions: compound 3 hours, ratio pEGFR/total EGFR
T1 construct: host or cells: H1975
Experimental: H1975 cells (ATCC CRL-5908) were plated at 20,000 cells per well in 96 well plates and placed at 37° C. 5% CO2. Once adhered (after 24h) cells were treated with compounds dissolved in DMSO at a final concentration of 0.1% DMSO in media. Compounds were diluted in media then added to cells for 3 hours in duplicate. Compound and media were removed from the cells, then 50ul of HTRF lysis buffer is added (lysis buffer was diluted from 4× stock to 1× in DI water, with 1% blocking agent also added). Cells were lysed on a plate shaker (2000 rpm) for 30 minutes at room temperature. pEGFR expression was monitored using the Cisbio Phospho-EGFR (Tyri068) cellular kit (64EG1 PEH). Total EGFR expression was monitored using the Cisbio Total EGFR cellular kit (64NG1 PEH) as per manufacturer's instructions. Fluorescence emission was read at two different wavelengths (665 nm and 620 nm) on a PheraStar. Results were calculated as ratio of pEGFR/total EGFR and then percentage of 0 uM control.

[2] = target: CtermHisTag-mEGFR Wild type (Homo sapiens, UniProt P00533); assay: TR-FRET probe displacement assay, EGFR wild type; type: binding; conditions: EGFR wild type 1.25 nM, probe 100 nM, 30 mins room temperature
Experimental: (§1) Compounds (dissolved to 100 mM in DMSO) were dispensed into black low volume 384 well assay plates (Corning) over a final concentration range of 100000, 30000, 10000, 3000, 1000, 300, 100, 30, 10, and 3 nM using an Echo 550 (Labcyte). Positive control compound and DMSO as a negative control were dispensed into the first and last well, respectively. […]. Plates were read using a PheraStar FS (BMG Labtech) at Ex337 nm Ex490/520 nm. The data were analysed using Graphpad Prism/Dotmatics Studies Software. Assays conducted in technical replicate and repeated as a biological duplicate.

[3] = target: T2, Phospho-EGFR (Tyr1068) in A431 cells (Homo sapiens, UniProt P00533); assay: HTRF pEGFR/total EGFR assay in A431 cells (EGF stimulated); type: cell-based; conditions: compound 2.5 hours then 100 ng/ml EGF 30 mins, ratio pEGFR/total EGFR
T2 construct: endogenous in cells; host or cells: A431
Experimental: Cells were plated at 20,000 cells per well in 96 well plates and placed at 37° C. 5% CO2. Once adhered (after 24h) cells were treated with compounds dissolved in DMSO at a final concentration of 0.1% DMSO in media. Compounds were diluted in media then added to cells for 2.5 hours in duplicate, 100 ng/ml EGF (ThermoFisher, PHG0311 was is added to all compound treated cells as well as a control for 30 mins. Compound and media were removed from the cells, then 50ul of HTRF lysis bufferwas added (lysis bufferwas diluted from 4× stock to 1× in DI water, with 1% blocking agent also added). Cells were lysed on a plate shaker (2000 rpm) for 30 minutes at room temperature. pEGFR expression was monitored using the Cisbio Phospho-EGFR (Tyr1068) cellular kit (64EG1PEH). Total EGFR expression was monitored using the Cisbio Total EGFR cellular kit (64NG1PEH) as per manufacturer's instructions. Fluorescence emission was read at two different wavelengths (665 nm and 620 nm) on a PheraStar. Results were calculated as ratio of pEGFR/total EGFR and then percentage of OuM control.

[4] = target: T3, Phospho-EGFR (Tyr1068) in H1975 C797S cells (Homo sapiens, UniProt P00533, C797S/L858R/T790M); assay: HTRF pEGFR/total EGFR assay in H1975 C797S cells; type: cell-based; conditions: H1975 C797S cells (CRISPR), compound 3 hours, ratio pEGFR/total EGFR
T3 construct: endogenous in cells; host or cells: H1975 C797S (CRISPR-edited in house from ATCC CRL-5908)
Experimental: H1975 C797S cells (ATCC CRL-5908) were genetically engineered by CRISPR editing of EGFR C797S in house and validated by NGS. Cells were plated at 20,000 cells per well in 96 well plates and placed at 37° C. 5% CO2. Once adhered (after 24h) cells were treated with compounds dissolved in DMSO at a final concentration of 0.1% DMSO in media. Compounds were diluted in media then added to cells for 3 hours in duplicate. Compound and media were removed from the cells, then 50 ul of HTRF lysis buffer was added (lysis buffer was diluted from 4× stock to 1× in DI water, with 1% blocking agent also added). Cells were lysed on a plate shaker (2000 rpm) for 30 minutes at room temperature. pEGFR expression was monitored using the Cisbio Phospho-EGFR (Tyr1068) cellular kit (64EG1PEH). Total EGFR expression was monitored using the Cisbio Total EGFR cellular kit (64NG1PEH) as per manufacturer's instructions. Fluorescence emission was read at two different wavelengths (665 nm and 620 nm) on a PheraStar. Results were calculated as ratio of pEGFR/total EGFR and then percentage of 0 uM control.

[5] = target: CtermHisTag-mEGFR Triple Mutant - C797S, L858R, T790M (Homo sapiens, UniProt P00533, C797S/L858R/T790M); assay: TR-FRET probe displacement assay, EGFR triple mutant; type: binding; conditions: T790M 1.25 nM, probe 100 nM, 30 mins room temperature
Experimental: as §1

T2 sequence (P00533 25-1210): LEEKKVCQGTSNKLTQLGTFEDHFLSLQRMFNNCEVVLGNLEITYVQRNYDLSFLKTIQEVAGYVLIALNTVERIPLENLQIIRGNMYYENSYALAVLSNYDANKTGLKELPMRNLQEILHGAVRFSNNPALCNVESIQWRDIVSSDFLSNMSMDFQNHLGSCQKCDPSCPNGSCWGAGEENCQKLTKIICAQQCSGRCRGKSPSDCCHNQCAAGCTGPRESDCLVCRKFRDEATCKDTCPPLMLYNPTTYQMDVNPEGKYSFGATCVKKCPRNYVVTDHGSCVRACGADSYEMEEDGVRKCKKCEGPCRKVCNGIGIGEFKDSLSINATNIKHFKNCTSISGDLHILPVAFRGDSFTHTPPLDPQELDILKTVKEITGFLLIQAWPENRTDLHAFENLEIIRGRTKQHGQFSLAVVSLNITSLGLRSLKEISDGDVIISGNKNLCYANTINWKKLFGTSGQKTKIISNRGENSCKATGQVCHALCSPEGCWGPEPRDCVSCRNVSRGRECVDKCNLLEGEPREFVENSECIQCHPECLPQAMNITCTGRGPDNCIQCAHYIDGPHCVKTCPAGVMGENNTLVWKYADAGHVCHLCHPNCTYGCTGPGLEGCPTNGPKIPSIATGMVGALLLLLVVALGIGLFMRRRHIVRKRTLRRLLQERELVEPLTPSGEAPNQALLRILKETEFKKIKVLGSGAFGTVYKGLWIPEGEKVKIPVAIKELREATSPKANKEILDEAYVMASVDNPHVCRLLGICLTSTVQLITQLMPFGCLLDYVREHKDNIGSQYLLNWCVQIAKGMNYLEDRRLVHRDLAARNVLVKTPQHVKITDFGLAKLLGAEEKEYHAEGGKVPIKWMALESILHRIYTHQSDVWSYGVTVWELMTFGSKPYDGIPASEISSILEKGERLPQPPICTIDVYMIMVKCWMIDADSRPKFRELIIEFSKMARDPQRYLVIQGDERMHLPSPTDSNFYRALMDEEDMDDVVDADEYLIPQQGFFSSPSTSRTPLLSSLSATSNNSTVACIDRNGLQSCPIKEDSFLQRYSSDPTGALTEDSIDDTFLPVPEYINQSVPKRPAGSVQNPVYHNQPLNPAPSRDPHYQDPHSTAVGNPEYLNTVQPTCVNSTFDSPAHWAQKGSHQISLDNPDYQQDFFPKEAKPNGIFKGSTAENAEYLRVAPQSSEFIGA
CtermHisTag-mEGFR Wild type, sequence (P00533 25-1210): as above
T3 sequence (P00533 25-1210 T790M/C797S/L858R): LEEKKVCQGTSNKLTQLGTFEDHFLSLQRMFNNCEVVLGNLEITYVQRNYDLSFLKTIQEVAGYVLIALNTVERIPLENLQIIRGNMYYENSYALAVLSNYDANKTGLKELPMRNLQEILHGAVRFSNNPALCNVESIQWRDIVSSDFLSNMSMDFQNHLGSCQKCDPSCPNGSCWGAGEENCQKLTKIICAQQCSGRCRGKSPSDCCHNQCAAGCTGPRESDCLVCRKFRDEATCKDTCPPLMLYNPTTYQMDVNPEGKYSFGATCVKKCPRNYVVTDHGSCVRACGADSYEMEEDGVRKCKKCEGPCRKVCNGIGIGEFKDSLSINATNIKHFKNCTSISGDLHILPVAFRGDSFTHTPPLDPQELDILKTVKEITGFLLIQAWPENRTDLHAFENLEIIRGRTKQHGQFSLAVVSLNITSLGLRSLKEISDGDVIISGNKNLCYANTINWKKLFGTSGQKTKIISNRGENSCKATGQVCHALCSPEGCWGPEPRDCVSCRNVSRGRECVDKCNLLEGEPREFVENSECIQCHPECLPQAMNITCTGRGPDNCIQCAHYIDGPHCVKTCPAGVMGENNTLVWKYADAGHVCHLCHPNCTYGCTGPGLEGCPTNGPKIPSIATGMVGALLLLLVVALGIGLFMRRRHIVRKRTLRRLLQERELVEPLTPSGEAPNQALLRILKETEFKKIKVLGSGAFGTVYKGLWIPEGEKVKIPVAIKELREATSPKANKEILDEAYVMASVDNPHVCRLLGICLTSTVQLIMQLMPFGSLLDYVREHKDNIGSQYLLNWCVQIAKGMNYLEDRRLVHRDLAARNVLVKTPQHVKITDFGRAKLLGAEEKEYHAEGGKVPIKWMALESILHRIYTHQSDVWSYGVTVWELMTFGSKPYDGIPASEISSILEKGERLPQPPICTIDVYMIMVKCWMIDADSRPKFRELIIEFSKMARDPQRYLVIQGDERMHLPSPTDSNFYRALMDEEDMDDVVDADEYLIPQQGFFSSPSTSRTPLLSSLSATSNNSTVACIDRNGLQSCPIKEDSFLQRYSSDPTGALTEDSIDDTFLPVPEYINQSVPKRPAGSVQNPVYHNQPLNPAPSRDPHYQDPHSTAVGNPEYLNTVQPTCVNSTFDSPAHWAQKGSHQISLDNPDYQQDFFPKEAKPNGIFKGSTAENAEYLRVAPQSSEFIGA
CtermHisTag-mEGFR Triple Mutant - C797S, L858R, T790M, sequence (P00533 25-1210 T790M/C797S/L858R): as above

SMILES	IC50 [1] [nM]	IC50 [2] [nM]	IC50 [3] [nM]	IC50 [4] [nM]	IC50 [5] [nM]
C#Cc1cc(OCCCc2ccccc2)nc2nc(Nc3ccc(N4CCN(C)CC4)cc3)ncc12 [Example 22, 5-ethynyl-N-[4-(4-methylpiperazin-1-yl)phenyl]-7-(3-phenylpropoxy)pyrido[2,3-d]pyrimidin-2-amine]	> 3000	> 10000	> 3000	> 3000	100 to 1000
C#Cc1cc(NC(=O)NC2CCCC2)nc2nc(Nc3cccc(CN4CC(CS(C)(=O)=O)C4)c3)ncc12 [Example 85]	> 3000	< 1000	1000 to 3000	< 500	20 to 100
C#Cc1cc(NC(=O)N[C@@H]2CCN(C(C)=O)C2)nc2nc(Nc3ccc(N4CCN(C)CC4)cc3)ncc12 [Example 52]	> 3000	1000 to 10000	> 3000	> 3000	20 to 100
C#Cc1cc(N2C(=O)N(C)CC23CCCC3)nc2nc(Nc3ccc(S(=O)(=O)N(C)CCN(C)C)cc3)ncc12 [Example 110, N-[2-(Dimethylamino)ethyl]-4-[(5-ethynyl-7-{3-methyl-2-oxo-1,3-diazaspiro[4.4]nonan 1-yl}pyrido[2,3-d]pyrimidin-2-yl)amino]-N-methylbenzenesulfonamide]	> 3000	> 10000	> 3000	> 3000	100 to 1000
C#Cc1cc(OCc2ccccc2)nc2nc(Nc3ccc(N4CCN(C)CC4)cc3)ncc12 [Example 20, 7-(benzyloxy)-5-ethynyl-N-[4-(4-methylpiperazin-1-yl)phenyl]pyrido[2,3-d]pyrimidin-2-amine]	> 3000	> 10000	> 3000	> 3000	100 to 1000
C#Cc1cc(N2C(=O)N(C)CC23CCCC3)nc2nc(Nc3ccc(OCCN(C)C)cc3)ncc12 [Example 107]	1000 to 3000	1000 to 10000	> 3000	1000 to 3000	100 to 1000
C#Cc1cc(N2C(=O)N(C)CC23CCCC3)nc2nc(Nc3ccc(N4CCN(C5COC5)CC4)cc3)ncc12 [Example 104, 1-[5-Ethynyl-2-([4-[4-(oxetan-3-yl)piperazin-1-yl]phenyl]amino)pyrido[2,3-d]pyrimidin-7-yl]-3-methyl-1,3-diazaspiro[4.4]nonan-2-one]	1000 to 3000	< 1000	> 3000	1000 to 3000	20 to 100
C#Cc1cc(NC(=O)N(C)C)nc2nc(Nc3ccc(N4CCN(C)CC4)cc3)ncc12 [Example 37, 1-(5-ethynyl-2-{[4-(4-methylpiperazin-1-yl)phenyl]amino}pyrido[2,3-d]pyrimidin-7-yl)-3,3-dimethylurea]	> 3000	> 10000	> 3000	> 3000	100 to 1000
C#Cc1cc(NC(=O)NCc2cncn2C)nc2nc(Nc3ccc(N4CCN(C)CC4)cc3)ncc12 [Example 46, 1-(5-ethynyl-2-{[4-(4-methylpiperazin-1-yl)phenyl]amino}pyrido[2,3-d]pyrimidin-7-yl)-3-[(3-methylmidazol-4-yl)methyl]urea]	> 3000	< 1000	> 3000	> 3000	< 20
C#Cc1cc(NC(C)=O)nc2nc(Nc3ccc(N(C)CCN(C)C)cc3)ncc12 [Example 28]	> 3000	> 10000	> 3000	> 3000	< 20
C#Cc1cc(NC(=O)OC2CCCCC2)nc2nc(Nc3ccc(N4CCN(C)CC4)cc3)ncc12 [Example 66, cyclohexyl (5-ethynyl-2-((4-(4-methylpiperazin-1-yl)phenyl)amino)pyrido[2,3-d]pyrimidin-7-yl)carbamate]	> 3000	> 10000	> 3000	> 3000	100 to 1000

Continued, values first:

IC50 [1] [nM]	IC50 [2] [nM]	IC50 [3] [nM]	IC50 [4] [nM]	IC50 [5] [nM]	SMILES
< 500	< 1000	1000 to 3000	< 500	20 to 100	C#Cc1cc(N2C(=O)N(C)CC23CCCC3)nc2nc(Nc3ccc(N4CCOCC4)cc3)ncc12 [Example 103, 1-(5-Ethynyl-2-{[4-(morpholin-4-yl)phenyl]amino}pyrido[2,3-d]pyrimidin-7-yl)-3-methyl-1,3-diazaspiro[4.4]nonan-2-one]
500 to 1000	1000 to 10000	> 3000	> 3000	20 to 100	C#Cc1cc(N2C(=O)NC[C@H]2COC)nc2nc(Nc3ccc(N4CCN(C)CC4)cc3)ncc12 [Example 101, (5S)-1-(5-Ethynyl-2-{[4-(4-methylpiperazin-1-yl)phenyl]amino}pyrido[2,3-d]pyrimidin-7-yl)-5-(methoxymethyl)imidazolidin-2-one]
< 500	< 1000	1000 to 3000	< 500	< 20	C#Cc1cc(NC(=O)NC2CCCC2)nc2nc(Nc3cccc(N(C)[C@H]4C[C@H](CS(C)(=O)=O)C4)c3)ncc12 [Example 122]
500 to 1000	< 1000	500 to 1000	1000 to 3000	< 20	C#Cc1cc(NC(=O)NC2CCCC2)nc2nc(Nc3ccc(S(C)(=O)=O)cc3)ncc12 [Example 81, 3-Cyclopentyl-1-{5-ethynyl-2-[(4-methanesulfonylphenyl)amino]pyrido[2,3-d]pyrimidin-7-yl}urea]
< 500	< 1000	> 3000	< 500	< 20	C#Cc1cc(NC(=O)NCc2ccccc2)nc2nc(Nc3ccc(N4CCN(C)CC4)cc3)ncc12 [Example 39, 1-benzyl-3-(5-ethynyl-2-{[4-(4-methylpiperazin-1-yl)phenyl]amino}pyrido[2,3-d]pyrimidin-7-yl)urea]
500 to 1000	1000 to 10000	> 3000	> 3000	< 20	C#Cc1cc(N2C(=O)OCC2C2CCCC2)nc2nc(Nc3ccc(N4CCNCC4)cc3)ncc12 (stereo not drawn) [Example 115, 4-Cyclopentyl-3-(5-ethynyl-2-{[4-(piperazin-1-yl)phenyl]amino}pyrido[2,3-d]pyrimidin-7-y0)-1,3-oxazolidin-2-one]
< 500	< 1000	> 3000	< 500	< 20	C#Cc1cc(NC(=O)NCC2COC2)nc2nc(Nc3ccc(N4CCN(C)CC4)cc3)ncc12 [Example 55, 1-(5-ethynyl-2-{[4-(4-methylpiperazin-1-yl)phenyl]amino}pyrido[2,3-d]pyrimidin-7-yl)-3-(oxetan-3-ylmethyl)urea]
